These results are taken from publication PMC10374545, “A small molecule inhibitor of PTP1B and PTPN2 enhances T cell anti-tumor immunity” (Nature Communications, 2023).

“And” between values parts separate entries of the source, which are not always exact repeats. Equal entries are not always repeated.

The test system of one data set is AT3-OVA mammary tumors. The data set can be described thus: AT3-OVA tumor growth in Lck-Cre;Ptpn2fl/fl mice. The data set is classed as in vivo, mouse. The arrangement: key to Tumour growth: tumour size in mm^2 (two-dimensional caliper measurement). To be noted: for Tumour growth: AT3-OVA tumours, individual mice (Figure 7A). The method, then: Male or female mice were injected subcutaneously with 5 × 10^5 MC38 tumor cells resuspended in 100 μl D-PBS into the flank. Alternatively, female mice were injected orthotopically with 5 × 10^5 AT3 or AT3-OVA or PTPN2-deleted AT3 or AT3-OVA tumor cells resuspended in 20 μl D-PBS into the fourth mammary fat pad. Tumor sizes were measured in two dimensions (mm^2) using electronic callipers two to three times per week as soon as tumors were palpable (20–25 mm^2).

Another data set concerns the target T1, PTPN2 (Homo sapiens, UniProt P17706).
T1 construct: PTPN2, residues 1-387; made in house; host or cells: E. coli BL21(DE3)
T1 sequence (P17706 1-387 isoform P17706-2): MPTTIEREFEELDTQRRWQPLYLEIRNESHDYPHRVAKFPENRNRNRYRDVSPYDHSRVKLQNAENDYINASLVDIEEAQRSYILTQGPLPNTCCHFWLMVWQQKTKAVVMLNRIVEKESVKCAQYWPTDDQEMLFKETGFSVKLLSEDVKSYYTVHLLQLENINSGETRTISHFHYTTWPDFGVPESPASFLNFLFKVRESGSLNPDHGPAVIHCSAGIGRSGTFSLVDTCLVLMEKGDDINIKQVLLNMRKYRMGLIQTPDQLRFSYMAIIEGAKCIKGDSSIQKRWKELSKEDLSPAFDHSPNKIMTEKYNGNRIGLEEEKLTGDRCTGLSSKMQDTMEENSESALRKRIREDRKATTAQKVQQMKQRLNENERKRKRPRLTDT
The data set can be described thus: PTP inhibition assay with DiFMUP substrate (IC50). It counts as biochemical. On the procedure: E. coli BL21(DE3) (Novagen) was used as an expression host and the induction of protein expression was carried out in LB media with 1 mM IPTG at 18 °C overnight. Cell pellets were stored at −80 °C for subsequent protein purification.
Protein purification of PTPs for enzymatic assays was conducted at 4 °C. Frozen cell pellets were lysed by sonication in 40 ml cold lysis buffer (50 mM Tris-HCl, pH 8.0, 150 mM NaCl, 5 mM imidazole, and 1 mM PMSF) per litre cell pellet. Cell lysates were clarified by centrifugation using a Beckman JA-18 rotor for 15 min at 5308 x g. The supernatant was incubated with HisPur Ni-NTA resin (Thermo Scientific) for 2 h and then packed onto a column and washed with 50 resin volume of buffer A (50 mM Tris-HCl, pH 8.0, 500 mM NaCl, 5 mM imidazole). The His-tagged proteins were eluted with Buffer B (50 mM Tris-HCl, pH=8.0, 500 mM NaCl, 300 mM imidazole,). Pooled His-protein-containing fractions were concentrated, loaded onto a HiLoad 26/600 Superdex 75 column (GE Healthcare Biosciences) and eluted with storage buffer (50 mM Tris-HCl, pH 8.0, 150 mM NaCl, 1 mM DTT, 10% glycerol). […] The protein was aliquoted and stored at −80 °C.
The PTP kinetic assay was modified from previous reported protocols[73],[74]. […] The fluorescence signal was measured using a CLARIOstar Plus Microplate Spectrophotometer (BMG Labtech) using excitation and emission wavelengths of 340 nm and 450 nm, respectively. […]
To determine the mode of inhibition, the reactions were initiated by the addition of enzyme (final concentration for PTP1B and PTPN2 was 0.05 nM) to the reaction mixtures (0.2 ml) containing various concentrations of DiFMUP with different concentrations of the inhibitor. […] The fluorescence signal was measured using a CLARIOstar Plus Microplate Spectrophotometer (BMG Labtech) using excitation and emission wavelength of 340 nm and 450 nm, respectively. […]

The nature of data set [1]: Serum cytokines (BD Cytokine Bead Array) in AT3-OVA tumor-bearing mice. It counts as in vivo, mouse. On the procedure: Single-cell suspensions from spleens and lymph nodes were obtained as described previously. For the detection of intracellular cytokines and granzyme B, T cells were fixed and permeabilized with the BD Cytofix/Cytoperm kit according to the manufacturer’s instructions. Briefly, T cells were first surface stained with fluorophore-conjugated antibodies and then fixed followed by permeabilization on ice for 20 min. Fixed and permeabilized cells were stained for IFN-γ, TNF, and granzyme B for 45 min at room temperature. For the detection of intracellular FoxP3 the Foxp3/Transcription Factor Staining Buffer Set (eBioscience) was used according to the manufacturer’s instructions. Briefly, cells were fixed and permeabilized for 1 h on ice followed by intracellular staining at room temperature for 45 min. For the detection of serum cytokines, the BD CBA Mouse Inflammation Kit™ was used according to the manufacturers’ instructions.

The nature of data set [2]: Histology of liver, lungs, salivary glands, colon (H&E, Sirius Red). The data set is classed as in vivo, mouse. As to conditions: 10 mg/kg i.v.
The mark [3] stands for this setting: Figure 10A, serum, individual mice, listed as CMP-182, in pg/mL (unit assumed).

Regarding `CC(C)(O)CCOc1ccc2cc(O)c(N3CC(=O)NS3(=O)=O)c(F)c2c1` [Compound 182, 5-(1-Fluoro-3-hydroxy-7-(3-hydroxy-3-methylbutoxy)naphthalen-2-yl)−1,2,5-thiadiazolidin-3-one 1,1-dioxide], the “growth of AT3-OVA tumors in Lck-Cre;Ptpn2fl/fl mice” value with AT3-OVA mammary tumors (10 mg/kg i.v., effects modest) is given as “additionally repressed the growth”. In addition, the Tumour growth with AT3-OVA mammary tumors (Lck-Cre;Ptpn2fl/fl mice n=6, day 7 post injection, listed as CMP-182) was 39.6 and 38.4 and 28.91 and 24.91 and 14.4 and 25; in the data set with AT3-OVA mammary tumors (Lck-Cre;Ptpn2fl/fl mice n=6, day 9 post injection, listed as CMP-182), 40.2 and 33 and 27.36 and 24.44 and 20.64 and 28.6; in the data set with AT3-OVA mammary tumors (Lck-Cre;Ptpn2fl/fl mice n=6, day 11 post injection, listed as CMP-182), 40.8 and 26.46 and 22.5 and 19.89 and 25.38 and 17.64; in the data set with AT3-OVA mammary tumors (Lck-Cre;Ptpn2fl/fl mice n=6, day 13 post injection, listed as CMP-182) it was 44.8 and 30.25 and 16 and 20.25 and 29.64 and 25.38; with AT3-OVA mammary tumors (Lck-Cre;Ptpn2fl/fl mice n=6, day 16 post injection, listed as CMP-182), 44.16 and 40.92 and 16 and 18.9 and 20.68 and 31.11; with AT3-OVA mammary tumors (Lck-Cre;Ptpn2fl/fl mice n=6, day 19 post injection, listed as CMP-182), 38.94 and 25 and 15.2 and 25.92 and 33.48 and 38.34. Also, the Tumour growth in the data set on AT3-OVA mammary tumors (Lck-Cre;Ptpn2fl/fl mice n=6, day 22 post injection, listed as CMP-182) was 38.94 and 28.08 and 25.08 and 22.36 and 21 and 35. Further, the Tumour weights in the data set with AT3-OVA mammary tumors (Lck-Cre;Ptpn2fl/fl mice n=6, individual mice (Figure 7B), listed as CMP-182, in mg (unit assumed)) was 123 and 76 and 120 and 82 and 67 and 156. Besides, the IC50 against PTPN2 (DiFMUP 10 μM as substrate) is 0.58 ± 0.02 nM; against PTPN2 (TC-PTP, DiFMUP 10 μM, pH 7.0, 25 °C) it was 0.58 ± 0.02 nM. For the same compound, the “serum levels of pro-inflammatory cytokines IL-6, IFNγ and TNF” value in data set [1] (10 mg/kg i.v.) is “not significantly increased”. The “Serum IFNg 2nd cohort, median” value in data set [1] (Figure 10A, median, n=8) was 10.56, n=8. Further, in data set [1] (Figure 10A, median, n=8), the “Serum IL-6 2nd cohort, median” value was 8.881, n=8. Moreover, the “Serum TNF 2nd cohort, median” value in data set [1] (Figure 10A, median, n=8) is given as 15.88, n=8. Moreover, in data set [1] (setting [3]), the IFN g is 8.688 and 8.172 and 5.3329 and 65.9781 and 16.5587 and 24.0426 and 12.4297 and 4.946. The IL-6 in data set [1] (setting [3]) was 14.2361 and 23.6555 and 10.1071 and 7.655 and 5.591 and 5.72 and 7.01 and 68.8168. The TNF in data set [1] (setting [3]) is 7.107 and 11.4953 and 23.094 and 50.0533 and 23.4075 and 14.0031 and 17.7649 and 12.4357. In addition, the “liver fibrosis (Picrosirius red)” value in data set [2] was “no signs of liver fibrosis”. The “lymphocytic infiltrates in liver, lungs, salivary glands and colon” value in data set [2] was “did not observe any overt lymphocytic infiltrates”.

A word on the IC50: it is the concentration needed to halve the response being measured.
